# Measurements as given in US20220040263A1, “COMPANION DIAGNOSTIC FOR COMBINATION LENALIDOMIDE AND ERYTHROPOIETIN TREATMENT” (H. Lee Moffitt Cancer Center and Research Institute, Inc., priority 2016, published 2022).
# Experiments:
# [1] = target: T1, rhu-CD45 (Homo sapiens, UniProt P08575); assay: BIOMOL Green CD45 Tyrosine Phosphatase Assay; assay type: biochemical; settings: recombinant CD45, substrate pp60c-Src, read-out: inhibition of CD45 PTP activity
# T1 construct: purchased Calbiochem
# T1 sequence (P08575 26-1306): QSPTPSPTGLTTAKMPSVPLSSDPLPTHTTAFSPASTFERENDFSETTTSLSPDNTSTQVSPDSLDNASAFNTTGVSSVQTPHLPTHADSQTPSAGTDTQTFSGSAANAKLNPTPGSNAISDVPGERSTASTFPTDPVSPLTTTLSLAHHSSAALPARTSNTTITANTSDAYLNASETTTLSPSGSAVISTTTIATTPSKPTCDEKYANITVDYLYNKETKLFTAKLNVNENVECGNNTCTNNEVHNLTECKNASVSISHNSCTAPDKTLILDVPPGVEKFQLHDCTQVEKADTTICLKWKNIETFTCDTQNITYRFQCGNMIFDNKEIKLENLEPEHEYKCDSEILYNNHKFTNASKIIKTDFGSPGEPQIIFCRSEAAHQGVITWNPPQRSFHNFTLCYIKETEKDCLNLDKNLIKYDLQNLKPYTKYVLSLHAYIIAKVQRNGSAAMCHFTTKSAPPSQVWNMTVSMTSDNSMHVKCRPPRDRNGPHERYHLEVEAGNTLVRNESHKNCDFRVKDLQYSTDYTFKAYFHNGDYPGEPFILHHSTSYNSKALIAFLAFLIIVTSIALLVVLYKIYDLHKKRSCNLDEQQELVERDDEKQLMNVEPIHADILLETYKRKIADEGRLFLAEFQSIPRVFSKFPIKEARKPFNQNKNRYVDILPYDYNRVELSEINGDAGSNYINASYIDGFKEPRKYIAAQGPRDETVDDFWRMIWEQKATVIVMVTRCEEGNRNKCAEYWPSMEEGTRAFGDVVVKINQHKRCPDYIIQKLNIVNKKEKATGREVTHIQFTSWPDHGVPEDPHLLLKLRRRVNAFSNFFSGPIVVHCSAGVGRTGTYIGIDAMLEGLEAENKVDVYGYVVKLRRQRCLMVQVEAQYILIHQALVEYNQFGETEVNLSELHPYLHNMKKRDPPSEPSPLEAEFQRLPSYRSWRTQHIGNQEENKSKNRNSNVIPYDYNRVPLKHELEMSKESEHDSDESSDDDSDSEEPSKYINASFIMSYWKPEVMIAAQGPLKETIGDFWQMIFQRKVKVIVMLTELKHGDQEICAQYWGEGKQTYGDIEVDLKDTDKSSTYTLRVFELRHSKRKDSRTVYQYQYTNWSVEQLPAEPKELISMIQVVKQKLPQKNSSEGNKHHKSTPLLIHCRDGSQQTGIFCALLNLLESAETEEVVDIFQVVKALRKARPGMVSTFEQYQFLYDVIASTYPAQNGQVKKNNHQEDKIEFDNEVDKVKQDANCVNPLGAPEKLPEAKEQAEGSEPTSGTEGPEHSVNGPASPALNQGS
# Description: CD45-specific PTP activity was assayed as outlined in the BIOMOL Green™ CD45 Tyrosine Phosphatase Assay Kit. Briefly, 75 U of rhu-CD45 (Calbiochem) was incubated for 1H at 37° C. with the indicated inhibitors (1 μM CC5013 and thalidomide, 100 μM Na Orthovanadate, and 50 μM RWJ-60475 (CD45-specific PTP inhibitor) in 1× assay buffer. The substrate pp60c-Src was added at 200 μM and incubated for 1H at 37° C. Samples were read on a plate reader at 620 nm. Percent PTP activity was calculated according to the equation (OD of test sample/OD of control)×100.
# This notion is in agreement with findings that lenalidomide suppressed cytosolic release of Csk that is dependent upon dephosphorylation of the Cbp/PAG Csk docking site (Tyr314) by CD45. To determine if lenalidomide inhibits CD45 phosphatase, recombinant CD45 PTP inhibition by lenalidomide and thalidomide was compared to the pan-PTP inhibitor sodium orthovanadate and the CD45-selective inhibitor, RWJ-60475 using the Biomol CD45 phosphatase assay. […] [FIG. 7].
# [2] = tested on: MDS BM-MNC; assay: Clonogenic (colony forming) assay of MDS BM-MNC pretreated with lenalidomide, plated with EPO; assay type: cell-based, human
# Description: FIGS. 1A and 1B show Lenalidomide potentiates clonogenic response to […]. […] Colonies were scored after 14 days incubation and the growth of bone marrow colony-forming unit granulocyte, erythroid, macrophage, megakaryocyte (CFU-GEMM); burst-forming unit-erythroid (BFU-E); and colony-forming unit granulocyte-macrophage (CFU-GM) assessed. […] Cells were then plated in methylcellulose+10% FBS, 2000 cells/well, with or without erythropoietin (EPO). Colonies were scored at day seven.
# To investigate the mechanism by which lenalidomide promotes erythropoiesis, the effect of lenalidomide on erythroid progenitor colony forming capacity was evaluated in lower risk patients [FIG. 1A]. Two-hour exposure to lenalidomide prior to initiation of BM-MNC in methylcellulose culture enhanced BFU-E formation over a concentration range of 0.001-1.0 μM. […] Erythroid progenitor cell lines were next evaluated to identify a model for investigation of the mechanism of lenalidomide's erythroid promoting effect.
# [3] = tested on: Csk; assay: Csk and phospho-Lyn507 in UT7 cells by Western immunoblot; assay type: cell-based; settings: lenalidomide alone or combined with EPO
# Description: Serum starved UT7 cells were treated with either vehicle alone (control), CC5013 (2 hours), EPO (30 minutes), or CC5013 followed by addition of EPO at the concentrations indicated. Cells were lysed and assayed for β-actin (Sigma), phospho-Lyn507, total Lyn and Csk (Cell Signaling) by Western immunoblot as described previously. Protein loading was normalized to β-actin, and immunoblot signals of phosphorylated Lyn were normalized to total Lyn and actin by band densitometry.
# The Lyn/Src signal response is inhibited through both Csk phosphorylation of the C-terminal tyrosine residue enabled by SFK phosphorylation of the Csk-binding protein (Csk/Pag), and by the action of the CD45 PTP that dephosphorylatse the SFK activation loop tyrosine. There were minor changes in phosphorylation of the C-terminal tyrosine of Src and Lyn kinases despite significant increases in phosphorylation of the Src activation loop tyrosine [FIGS. 5 and 6]. A minor reduction in C-terminal tyrosyl phosphorylation relative to total Lyn was associated with a decrease in total Csk that was apparent with treatment with either lenalidomide alone or when combined with EPO [FIG. 6].
# [4] = tested on: MDS patients without 5q deletions; settings: cited from earlier work
# [5] = two-hour exposure prior to methylcellulose culture
structure (smiles),measurement,setting,value
"Nc1cccc2c1CN(C1CCC(=O)NC1=O)C2=O (stereo not drawn) [lenalidomide, 3-(4-amino-1-oxo-1,3-dihydro-2H-isoindol-2-yl)piperidine-2,6-dione]",inhibition at 1 µM,[1],~50%
same,growth of multipotent progenitors (CFU-GEMM),[2]; [5],unchanged
same,growth of myeloid progenitors (CFU-GM),[2]; [5],unchanged
same,concentration range over which BFU-E formation was enhanced,"[2]; two-hour exposure prior to methylcellulose culture with EPO, lower risk MDS BM-MNC",0.001 to 1.0 µM
same,total Csk,[3],decrease
same,patients who benefit from lenalidomide therapy,[4],Approximately 25%
